The results in this text go back to the OligoGym collection.

Some targets named below: SMAD7; MAP3K1; PTPN11; RHOB.
Holding throughout (conditions): ASO

These antisense oligonucleotides have a phosphorothioate backbone; sugars and methylation of C are not fully specified.
Further: test concentration or dose not given here.

On to CTGCCCCTTCTTCCAAAA, for which the remaining target (mRNA or protein) (fraction of control) with SMAD7 worked out at 0.68.
Sequence CTGGTGAAGTGAGTGGAAAC yielded a remaining target (mRNA or protein) (fraction of control) with MAP3K1 of 0.76.
On the same count and under the same terms, the same measure for CTGTAGTAACCATTCTTGCA: 0.4.
CTGTGGTCTCAGCTAATTTG: the remaining target (mRNA or protein) (fraction of control) with PTPN11 was found to be 0.35.
Consider CTGTTCAGTGGCATCATGGC, for which the remaining target (mRNA or protein) (fraction of control) with MAP3K1 was found to be 0.49.
For the sequence GAAAGAACAAAATCTCCAGG, in the data set with PTPN11, the remaining target (mRNA or protein) (fraction of control) was no less than 1.
Consider GAATCCCTGAAGTCTATGCT, for which the remaining target (mRNA or protein) (fraction of control) with MAP3K1 stood at 0.52.
The sequence GAGAAAACTTGCGCTGTGTT displayed a remaining target (mRNA or protein) (fraction of control) with MAP3K1 of 0.37.
GAGATCCAGGAGCAGATG returned a remaining target (mRNA or protein) (fraction of control) with SMAD7 of 0.78.
In the data set with SMAD7, GATGGTACCTTGGGTTAT had a remaining target (mRNA or protein) (fraction of control) of 0.94.
Regarding GCAACCCTTTGAGAGTTTCT, the remaining target (mRNA or protein) (fraction of control) with MAP3K1 is 0.32.
In the data set with MAP3K1, GCACTAGTTTGGGCTTTTGC displayed a remaining target (mRNA or protein) (fraction of control) of 0.28.
In the data set with SMAD7, GCCGATTTTGCTCCGCAC had a remaining target (mRNA or protein) (fraction of control) of 0.78.
With GCTCAGCTCACGCTCTGT, the remaining target (mRNA or protein) (fraction of control) in the data set with SMAD7 was determined as 0.62.
Turning to GCTCCTCCGCCGCCGCCTGC, the remaining target (mRNA or protein) (fraction of control) with MAP3K1 was 0.27.
In the data set with SMAD7, GCTGTCCGTCGCCCCTTC yielded a remaining target (mRNA or protein) (fraction of control) of 0.87.
With GGACATCCCCGCTTGCTG, the remaining target (mRNA or protein) (fraction of control) with SMAD7 was no less than 1.
Regarding GGACTTGATGAAGATGGG, the remaining target (mRNA or protein) (fraction of control) with SMAD7 is no less than 1.
Sequence GGCAAAAGCCATTCCCCT came in with a remaining target (mRNA or protein) (fraction of control) with SMAD7 of 0.72.
In the case of GGCAGCCGCGCGCGCGCTGC, the remaining target (mRNA or protein) (fraction of control) in the data set with MAP3K1 was 0.81.
As for GGCAGCTGCTGATGAACT, the remaining target (mRNA or protein) (fraction of control) with SMAD7 was 0.86.
Sequence GGCAGGTTTTCTCATCTGAA registered a remaining target (mRNA or protein) (fraction of control) with PTPN11 of 0.84.
GGCCCGCTCGGGACCGGACG displayed a remaining target (mRNA or protein) (fraction of control) in the data set with PTPN11 of 0.75.
GGGGTACTGTAGTAACCATT returned a remaining target (mRNA or protein) (fraction of control) with MAP3K1 of 0.55.
In turn, GGTACTGTAGTAACCATTCT came in with a remaining target (mRNA or protein) (fraction of control) in the data set with MAP3K1 of 0.53.
In the data set with SMAD7, GTAGAAGAAATGAAAGAA registered a remaining target (mRNA or protein) (fraction of control) of no less than 1.
GTAGATATCAATGTGGTTCC: the remaining target (mRNA or protein) (fraction of control) with MAP3K1 is 0.75.
Regarding GTAGTAACCATTCTTGCAGA, the remaining target (mRNA or protein) (fraction of control) with MAP3K1 came to 0.42.
As for GTATGCCACCACGCACCA, the remaining target (mRNA or protein) (fraction of control) in the data set with SMAD7 is no less than 1.
As to GTCATGTTCCTCCCGCCCTC, in the data set with PTPN11, the remaining target (mRNA or protein) (fraction of control) stood at 0.24.
Consider GTCTGCCTTTTGTTTGAACC, for which, in the data set with MAP3K1, the remaining target (mRNA or protein) (fraction of control) is 0.67.
The sequence GTTGTCGTTGTAAAGTGTCT showed a remaining target (mRNA or protein) (fraction of control) in the data set with MAP3K1 of 0.45.
The sequence GTTGTCTCCCCATCTGCC showed a remaining target (mRNA or protein) (fraction of control) with SMAD7 of no less than 1.
The sequence GTTTCCAGATAGTTGTTGGG registered a remaining target (mRNA or protein) (fraction of control) in the data set with MAP3K1 of 0.85.
TAACCATTCTTGCAGAACTC registered a remaining target (mRNA or protein) (fraction of control) with MAP3K1 of 0.59.
Sequence TACAAGAAAACTACCATGTT showed a remaining target (mRNA or protein) (fraction of control) with PTPN11 of no less than 1.
TACTGTAGTAACCATTCTTG registered a remaining target (mRNA or protein) (fraction of control) with MAP3K1 of 0.74.
Sequence TAGTTGATCTGTATAATTGG came in with a remaining target (mRNA or protein) (fraction of control) with MAP3K1 of no less than 1.
Consider TCAACCACATTGCAAGCCTT, for which the remaining target (mRNA or protein) (fraction of control) with PTPN11 is 0.27.
On to TCAGGCAGCTGGTCCAGCTC, for which, in the data set with MAP3K1, the remaining target (mRNA or protein) (fraction of control) was determined as 0.52.
Take TCATCTGAAACTTTTCTGCT: in the data set with PTPN11, the remaining target (mRNA or protein) (fraction of control) was 0.84.
Consider TCCACCATAGGATTCTTCTT, for which the remaining target (mRNA or protein) (fraction of control) with PTPN11 amounted to 0.43.
Turning to TCCACTCGTCTGGTCCGCTA, in the data set with PTPN11, the remaining target (mRNA or protein) (fraction of control) was determined as 0.29.
For TCCGCGATGTCATGTTCCTC, the remaining target (mRNA or protein) (fraction of control) in the data set with PTPN11 amounted to 0.26.
Consider TCTCCGCGATGTCATGTTCC, for which the remaining target (mRNA or protein) (fraction of control) with PTPN11 was 0.43.
Regarding TGCATGAAAAGCAAGCAC, in the data set with SMAD7, the remaining target (mRNA or protein) (fraction of control) was determined as 0.91.
In the data set with SMAD7, TGCCCAGGTACTGCCTCT returned a remaining target (mRNA or protein) (fraction of control) of 0.72.
In the data set with RHOB, TGCGGGCCAGCTCTGTGC displayed a remaining target (mRNA or protein) (fraction of control) of 0.69.
TGCTTGGATTTCTGCTTC returned a remaining target (mRNA or protein) (fraction of control) with SMAD7 of 0.89.
With TGGACACAGTAGAGCCTC, the remaining target (mRNA or protein) (fraction of control) with SMAD7 was no less than 1.
In turn, TGTGCGGACATGCTCGTC returned a remaining target (mRNA or protein) (fraction of control) with RHOB of no less than 1.
In the case of TTACTGAACACGATCAGC, the remaining target (mRNA or protein) (fraction of control) in the data set with RHOB is no less than 1.
Take TTCTTGCAGAACTCAAGTAG: the remaining target (mRNA or protein) (fraction of control) in the data set with MAP3K1 was no less than 1.
Sequence TTGGGACTGCAAACCTCT registered a remaining target (mRNA or protein) (fraction of control) in the data set with SMAD7 of 0.91.
TTGTTGAACTAGAAGGTCCT displayed a remaining target (mRNA or protein) (fraction of control) in the data set with MAP3K1 of 0.57.
TTGTTGAGCATCCTGTTTCT: in the data set with MAP3K1, the remaining target (mRNA or protein) (fraction of control) worked out at 0.39.
In the data set with MAP3K1, TTGTTTTCAGGACAGTTTCT came in with a remaining target (mRNA or protein) (fraction of control) of 0.65.
Take TTTTGCATACTGAGCTTAGG: the remaining target (mRNA or protein) (fraction of control) with MAP3K1 worked out at 0.48.
